Laboratory results: patent US12617770B2, “IRAK inhibitor and preparation method therefor and use thereof” (WUHAN CREATERNA SCIENCE AND TECHNOLOGY CO., LTD., priority 2019, dated 2026)

How the values were obtained:
TNF-α release = assay: Inhibition of cytokine TNF-α release in LPS-induced Balb/c female mice; type: in vivo; conditions: oral gavage 16 h before LPS (i.p. 0.2 mg/kg); serum 1.5 h after stimulation
Experimental: Female Balb/c mice were randomized into groups, each containing 4 mice, including a control+vehicle group, a model+vehicle group, a model+reference group and model+compound groups. The control animals received an intraperitoneal injection of normal saline (10 mL/kg) and the model animals received LPS stimulation (Sigma CAT #L2630, i.p., 10 mL/kg, 0.2 mg/kg). To the test compounds, DMSO, Solutol and 10 mM PBS were sequentially added to prepare a solution or suspension of required concentration for administration. For the vehicle, DMSO, Solutol and 10 mM PBS were mixed in a volume ratio of 5:15:80. The animals were administered through oral gavage (10 mL/kg) 16 h before LPS (or saline) stimulation at predetermined doses, and euthanized with CO2 at 1.5 h after the stimulation for cardiac blood collection. The whole blood was not anticoagulated, incubated in wet ice for 1.5 h, and centrifuged at 2000×g at 4° C. for 10 min to separate the serum. Serum was frozen at −80° C. for TNF-α assay. Quantification of TNF-α was done by TNF-α ELISA kit according to the manufacturer's instructions. The readings of absorbance at A450 were measured with a microplate reader SpectraMax i3x (Molecular Device) for calculating the inhibition of the compounds, and IC50 was calculated with GraphPad Prism 7.0 software. […] In particular, some exemplary compound inhibition rate values are as follows: […]

[1] = Plasma protein binding (PPB), equilibrium dialysis, mouse plasma; type: in vitro ADME; conditions: 5 h at 37° C., read-out: Plasma protein binding (Bound %) Mouse (converted)
Experimental: The experiment is intended to determine plasma protein binding (PPB) data of the test compounds disclosed herein.
In the PPB experiment, the final administration matrix contained the test compound or a reference compound with a concentration of 1 μM and DMSO with a content of 0.2%.
Collecting samples in initial time: 25 μL of the matrix containing the compound was added into a blank 96-well collecting plate, and the plate was stored at −20° C.
An equilibrated dialysis device was prepared. 100 μL of buffer was added to the receiving side of the equilibrium dialysis plate. Then 100 μL of the administration matrix containing the compound or the reference compound was added into an administration side of the equilibrium dialysis plate. The prepared equilibrium dialysis plate was placed in a 37° C. shaker to be shaken for 5 h at 60 rpm.
Sample was prepared at the end of cultivation (5 h): Preparing sample in the receiving side: 25 μL of sample from a receiving side was taken out and placed in a 96-well sample collecting plate, and 25 μL of a corresponding matrix (blank plasma) was added for mixing: 200 μL of ACN containing an internal standard was added, shaken for 10 minutes at 600 rpm, and centrifuged at 5594 g for 15 min.
Preparing sample in the administration side: 25 μL of the sample containing test compound and reference compound from the administration side was taken out and 25 μL of a blank buffer was added for mixing; 200 μL of ACN containing an internal standard was added, shaken for 10 minutes at 600 rpm, and centrifuged at 5594 g for 15 min.
Preparing sample in initial time: the sample containing test compound and reference compound was re-melted at 37° C. in initial time and then mixed with the corresponding matrix (blank buffer) in the same volume (25 μL); 200 μL of ACN containing an internal standard was added, shaken for 10 minutes at 600 rpm, and centrifuged at 5594 g for 15 min.
After all the samples were centrifuged, 50 μL of a supernatant was taken and added into 50 μL of ultrapure water for mixing, and the samples were sent to liquid chromatography-mass spectrometry.

human IRAK4 = molecular target: T1, human IRAK4 (Homo sapiens, UniProt Q9NWZ3); assay: IRAK4 MSA (Mobility-Shift Assay) at Km concentration of ATP; type: biochemical; conditions: GST-IRAK4 1 nM, ATP 37 μM (Km); read-out: IC50 for inhibiting human IRAK4 activity
T1 construct: purchased Cama (so in the source)
T1 sequence (Q9NWZ3 1-460): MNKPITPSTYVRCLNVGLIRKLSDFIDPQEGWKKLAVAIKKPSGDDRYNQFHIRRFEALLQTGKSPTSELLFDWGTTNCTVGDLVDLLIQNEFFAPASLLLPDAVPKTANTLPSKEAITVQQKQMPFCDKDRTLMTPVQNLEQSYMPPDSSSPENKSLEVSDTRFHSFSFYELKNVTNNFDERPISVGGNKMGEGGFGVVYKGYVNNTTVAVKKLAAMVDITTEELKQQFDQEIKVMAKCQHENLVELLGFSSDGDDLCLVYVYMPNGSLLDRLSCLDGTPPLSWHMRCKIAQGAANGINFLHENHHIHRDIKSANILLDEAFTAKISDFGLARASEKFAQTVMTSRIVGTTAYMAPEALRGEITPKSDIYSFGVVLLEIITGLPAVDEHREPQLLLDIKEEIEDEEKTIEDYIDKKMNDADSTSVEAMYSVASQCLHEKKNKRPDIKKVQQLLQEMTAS
Experimental: A recombinant fusion protein of N-terminal GST (glutathione-S-transferase) and human IRAK4 was used as enzyme (GST-IRAK4, kinase IRAK4 (Cama, CAT No. 09-145)) at a final concentration of 1 nM; ATP (Sigma. CAT No. A7699-1G) was at a final concentration of 37 μM; • the substrates used for the kinase reaction were 5-FAM (5-carboxyfluorescein)-labeled polypeptide (5-FAM-[…]-COOH) and substrate peptide FAM-P8 (GL Biochem, CAT No. 112396) at final concentrations of 5 μM.
In this assay, 500 μM stock solutions of the compounds were prepared in 100% DMSO, and serially 4-fold diluted to the 10th concentration gradient with 100% DMSO, followed by a 10-fold dilution in the compound buffer (50 mM HEPES, pH 7.5, 0.00015% Brij-35) to give intermediate dilutions of the compounds at a final concentration of 10 μM−0.04 nM containing 10% DMSO. 5 μL of the intermediate dilution was transferred into a black 384-well plate.
IRAK4 was diluted to 2.5 nM in the kinase buffer (50 mM HEPES, pH 7.5, 0.00015% Brij-35, 2 mM DTT). 10 μL of the IRAK4 dilution was transferred to the 384-well plate and co-incubated with the compound for 10-15 min.
The substrate and ATP were diluted to 12.5 μM and 92.5 μM with reaction buffer (50 mM HEPES, pH 7.5, 0.00015% Brij-35, 10 mM MgCl2), respectively. 10 μL of the dilution was transferred to a 384-well plate and incubated at 28° C. for 1 h. The reaction was terminated by adding 25 μL of 50 mM EDTA to the 384-well plate.
The inhibition rate of IRAK4 by the compounds was calculated by measuring the rate of phosphorylated substrate using a Caliper EZ Reader (PerkinElmer) and the IC50 was calculated by XL-fit software. […] In particular, some exemplary compound activity values are as follows: […]

COc1cc2nn([C@H]3CC[C@](C)(O)CC3)cc2cc1NC(=O)c1cccc(C)[n+]1[O-] [Compound 001, 2-((2-((1r,4r)-4-hydroxy-4-methylcyclohexyl)-6-methoxy-2H-indazol-5-yl)carbamoyl)-6-methylpyridine 1-oxide]
Inhibition rate (%) of TNF-α (TNF-α release): 74.00%
fraction unbound at 5 h, 1 μM [1]: 0.201
IC50 (human IRAK4): 6 nM

COc1cc2nn(CCC(C)(C)O)cc2cc1NC(=O)c1cccc(C)[n+]1[O-] [Compound 163, 2-((2-(3-hydroxy-3-methylbutyl)-6-methoxy-2H-indazol-5-yl)carbamoyl)-6-methylpyridine 1-oxide]
Inhibition rate (%) of TNF-α (TNF-α release): 71.56%
fraction unbound at 5 h, 1 μM [1]: 0.162
IC50 (human IRAK4): 23 nM
